How the values were obtained:
Format in all cases: cell-based
28S ribosomal RNA = experiment: Labelling of rRNA by 3PBis, Cy3 in-gel fluorescence; conditions: MCF7, Cy3 conjugation, total RNA agarose gel
Experimental: FIG. 20. 3PBis-ribosome interaction and labelling of 28S rRNA. MCF7 cells were incubated with 3PBis, fixed and conjugated with Cy3. After extraction, total RNA was run in agarose gel and stained with Syber gold or visualized by in-gel fluorescence scanning.
We investigated the possibility that 3Px molecules directly reacts in the ribosome itself. If 3Px enters the ribosome as puromycin does, it should bind only the large ribosomal subunit, and in particular the rRNA 28S that form the catalytic pocket of the ribosome.

MCF7 cells [1] = experiment: Polysome profiling of probe-treated cells; conditions: MCF7, 50 μM, 10 min
Experimental: To better understand the effect of 3Px on the global translation efficiency, we compared the polysome profiles from DMSO and probes-treated cells. By treating MCF7 cells with 50 μM 3PBis or 3PB for 10 min, we observed a 10% reduction of the polysome/80S ratio (calculated by comparing the area under the 80S peak and the combined area under the polysome peaks, FIG. 11a). This effect is independent from the UV-treatment. Incubation of 3PB and 3PBis for longer times (7 hours or 18 hours) results in a depression of the polysome/80S area ratio of >50%, meaning that treatments with 3PBis can depress translation, increasing the 80S pick and reducing heavy polyribosomes (FIG. 11b).
Cells were incubated for 5 minutes with cycloheximide 10 μg/mL at 37° C. to trap the ribosomes on the mRNAs. Cells were then washed with PBS complemented with cycloheximide (10 μg/mL) and scraped directly on the plate with 300 μL of lysis buffer (10 mM NaCl, 10 mM MgCl2, 10 mM Tris-HCl, pH 7.5, 1% Triton X-100, 1% sodium deoxycholate, […], 5 U/mL DNAse I, 200 U/mL RNase inhibitor, and 10 μg/mL cycloheximide, protease inhibitor). Nuclei and cellular debris were removed by three consecutive centrifugations (800 g, 5 min at 4° C.). […] The fraction corresponding to the 40S, 60S and 80S peaks and those corresponding to polysomes were collected monitoring the absorbance at 254 nm. […]

[2] = test system: ATP-binding site of GRP78; experiment: Competition with VER-155008 on probe labelling; conditions: MCF7, VER-155008 100 μM 1 hour before probe
Experimental: In total, 114 protein targets were identified from in-column digestion (called data set 1, n=4), 204 targets from in-gel digestion (called data set 2, n=4) and 1085 from in-bead digestion (called data set 3, n=2, FIG. 12c). The 3PB-beads pull down reflects the “double band” pattern observed with the incubation of 3PB/3PBis in the cell lysate (FIG. 12b). To increase the stringency of our in-beads digestion data set, we performed an enrichment analysis over control Peg-beads (n=2) and we identified 333 proteins setting a cut-off fold-enrichment (FC)≥1.3 between 3PB- and Peg-beads, while 166 proteins are identified with a FC≥2.5. By using the less stringent filter (FC≥1.3) and looking for proteins in common in the three data set, we identified 15 proteins as putative 3PB targets. These factors are known to be involved in tRNAs selection and ribosome elongation (eEF1A, eEF2, eEF4G), ribosome structure (RPL18), protein folding (HSP5A, HSP90AB1, PPIA), metabolism (PHGFH, ENO1, GAPDH, ALB), RNA processing (HNRNPK) and cellular structure (KRT2, KRT10, ACTB). […] After pull-down assay using avidin-magnetic beads (FIG. 12e and FIG. 13a) we observed the presence of the lower HSPA5/GRP78 band, while the upper band (although dominant in the input) was not detected. […]

[3] = test system: cellular proteins of HEK-293 and MCF7 cell lines; experiment: 3Px probe protein labelling, UV irradiation, anti-puromycin immunoblot
Experimental: For our initial analysis, we treated HEK-293 and MCF7 cell lines in complete culture medium with the 3PB probe (10 μM) for 10 min, followed by irradiation for 5 min on ice (total power: 0.75 J/cm2). We first assessed 3PB labeling of cellular proteins using SDS-PAGE analysis. […] Then, we compared the labelling activity of 3PB, 3PA and 3PBis in HEK293 and MCF7 cells, adding the probes before or after cell lysis. In the latter case, each probe is incubated for 1 h in the cytoplasmic cell extract at 4° C., followed by UV irradiation (0.75 J/cm^2) of the treated lysate. […] Therefore, both 3PB and 3PBis show additional bands with MW=˜50 kDa, when reacted in the cell lysate, with respect to the situation when probes are incubated with growing cells (FIG. 6a). […] This is presumably due to the higher hydrophobicity of the 3PBis probe and a consequent better cell membrane penetration (FIG. 7).
To test 3PN and 3PO activity, we treated MCF7 cells with different concentrations of the two drugs for 10 min, followed by UV-356 irradiation.
Reaction in cell culture: MCF7 or HEK-293 cells were grown to 80% of confluence and treated with CHX (10 μg/mL, 5 min, 37° C.) and then with the probe (10 min, 37 C). Cells were then washed with cold PBS (containing CHX 10 μg/mL), placed on ice and irradiated under a UV lamp (BLX-365, 5×8 W) at 365 nm for 5 min (0.75 J/cm^2) followed by lysis with hypotonic cytoplasmic buffer. Reaction in the cell lysate: HEK-293 or MCF7 cells were treated with CHX (10 μg/mL, 5 min). After hypotonic lysis and precipitation of nuclei and cellular debris by centrifugations at 18000 g, 4° C., 5 min, the supernatant was diluted to A260=1 a.u/μL with 10 mM NaCl, 10 mM MgCl2, 20 μg/mL cycloheximide, 10 mM Hepes, pH 7 in DEPC water, to a final volume of 150 μL. The diluted lysate was then incubated with the reactive probe for 1 hour in a 12-well plate and then UV-irradiated (BLX-365) at 365 nm for 5 min (0.75 J/cm2).
Cell lysates were prepared as described above. Proteins were separated by SDS-polyacrylamide gel electrophoresis and transferred onto PVDF membranes. […]

MCF7 cells [4] = experiment: Probe labelling after puromycin/CHX treatment, CuAAC Cy3-azide, in-gel fluorescence; conditions: MCF7, puromycin 20 and 100 μM 2 hours; 3PB 100 μM or 3PBis 50 μM, 10 min
Experimental: Next, we asked if the labelling is sensitive on puromycin treatment (i.e. dependent on ribosome activity). To do that, we first treated MCF7 cell with puromycin followed by 10 min incubation with 3PB or 3PBis. When used in minimal amounts, puromycin can be incorporated in neosynthesized proteins^25, while high concentrations as well as long incubation times, fully block translation. We first define the concentration that allows puromycin to be incorporated in the nascent peptide chain (i.e. 20 μM), and the range of concentrations that completely depress translation in our biological model (i.e. 50 μM, 100 μM and 200 μM, FIG. 10a). We treat MCF7 cells with both 20 and 100 μM puromycin for 2 hours before adding 3PB (100 μM, 10 min) or 3PBis (50 μM, 10 min). Probe-labeled proteins were coupled to a Cy3-azide reporter tag using CuAAC chemistry, separated by SDS-PAGE and detected by in-gel fluorescence scanning. We observed about 50% reduction of the labelling at 65 kDa after puromycin treatment for both probes (FIG. 5c-d). […] To better understand if the labelling is related to the activity of the ribosomal peptidyl transferase centre (PTC), we pre-treated cells with high concentrations of CHX (350 μM) before adding puromycin (100 μM) to fully block the ribosome catalytic activity^8. […]

MCF7 cells [5] = experiment: Puromycin concentration effect on translation, puromycin immunoblot; conditions: MCF7, 2 hours
Experimental: FIG. 10. Effect of ribosome inhibitors on 3PB/3PBis binding. (a) Immunoblot of puromycin on total protein extracts from, MCF7 cell treated with increasing concentrations of puromycin (incubation time: 2 hours). CHX+Puro: 350 μM CHX before puromycin treatment (20, 50, 100, 200 μM). 3PBis treatment: (50 μM, 10 min); −, not treatment. (b) On the left, immunoblot with anti-puromycin antibody on total protein extracts from MCF7 cells treat with the indicated drugs. CHX, 350 μM, 5 min; Puromycin, 100 μM, 2 hours; 3PB, 50 μM, 10 min. On the right, CuAAC coupling with Biotin-azide was performed on the cell lysate before total protein extract and SDS-PAGE. The staining of the membrane was performed with Streptavidin-HRP. (c) Sketch that summarize the effect of puromycin treatment on the 3PB-3PBis labelling.
Next, we asked if the labelling is sensitive on puromycin treatment (i.e. dependent on ribosome activity). To do that, we first treated MCF7 cell with puromycin followed by 10 min incubation with 3PB or 3PBis. When used in minimal amounts, puromycin can be incorporated in neosynthesized proteins^25, while high concentrations as well as long incubation times, fully block translation. […] Probe-labeled proteins were coupled to a Cy3-azide reporter tag using CuAAC chemistry, separated by SDS-PAGE and detected by in-gel fluorescence scanning. […]

C#CCOCCC(=O)NCCOCCOCCNC(=O)N[C@@H](Cc1ccc(OC)cc1)C(=O)N[C@H]1C(OC(=O)OCCC2(C)N=N2)C(n2cnc3c(N(C)C)ncnc32)O[C@@H]1COC(=O)OCCC1(C)N=N1 (some centres unmarked) [3PBis]
interaction with 28S rRNA (28S ribosomal RNA): directly interact with the 28S ribosomal RNA | reduction of the polysome/80S ratio (MCF7 cells [1]): 10% | reduction of probe labelling by VER-155008 [2]: 1.2 × | protein labeling signal ([3]; HEK293 and MCF7, probes added before or after cell lysis, UV 0.75 J/cm2): concentration-dependent increases in protein labeling | functional (binding) activity ([3]; depending on position of UV-active diazirine on ribose): possess the functional activity | reduction of the labelling at 65 kDa after puromycin treatment (MCF7 cells [4]): about 50%

C#CCOc1cc(C2(C(F)(F)F)N=N2)ccc1C(=O)N[C@@H](Cc1ccc(OC)cc1)C(=O)N[C@H]1[C@@H](O)[C@H](n2cnc3c(N(C)C)ncnc32)O[C@@H]1CO [3PN]
labelling efficiency after anisomycin and arsenite pre-treatment ([3]; MCF7, FIG. 8a): strong reduction

COc1ccc(C[C@H](N)C(=O)N[C@H]2[C@@H](O)[C@H](n3cnc4c(N(C)C)ncnc43)O[C@@H]2CO)cc1 [puromycin, Puromycin]
concentration that allows puromycin to be incorporated in the nascent peptide chain (MCF7 cells [5]): 20 µM

— patent publication US11629165B2, “Molecules for targeting ribosomes and ribosome-interacting proteins, and uses thereof” (Immagina Biotechnology S.r.l., priority 2018, dated 2023)
